The values that follow come from PubChem BioAssay (NCI).

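Assay format: 96-well plates, 48-hour exposure. Here, GI50 denotes the concentration required for 50% inhibition of growth. Definition used: TGI = concentration required for complete inhibition of growth.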

Among the test systems are NCI-H460 lung; PC-3 prostate; NCI/ADR-RES ovarian; A549 NSCLC; OVCAR-3 ovarian; UACC-257 melanoma; HL-60(TB) leukemia; MDA-MB-231 breast; COLO 205 colon; NCI-H226 lung.
Holding throughout (experiment): inhibition of tumour cell growth, NCI panel, 48 h

Regarding `CCC1(N2C(=O)c3c(F)c(F)c(F)c(F)c3C2=O)C(=O)NC(=O)N(c2ccccc2)C1=O` (stereo not given), the GI50 with NCI-H460 lung is 3.22 µM; in the experiment on PC-3 prostate, 2.28 µM; with NCI/ADR-RES ovarian it was 7.69 µM; in the experiment on A549 NSCLC it was 14 µM; in the experiment with OVCAR-3 ovarian, 1.67 µM; in the experiment on UACC-257 melanoma, 5.06 µM. The GI50 with HL-60(TB) leukemia is 2.67 µM; in the experiment with MDA-MB-231 breast it was 1.7 µM; with COLO 205 colon it was 2.57 µM; in the experiment with NCI-H226 lung it was 10.9 µM. Besides, the TGI turned out to be 11.5 µM in the experiment with NCI-H460 lung; 16 µM with PC-3 prostate; 27.1 µM in the experiment with NCI/ADR-RES ovarian; 28.6 µM in the experiment on A549 NSCLC; 4.1 µM in the experiment with OVCAR-3 ovarian; 17.1 µM in the experiment with UACC-257 melanoma. The TGI with HL-60(TB) leukemia was determined as 4.57 µM; in the experiment on MDA-MB-231 breast, 4.03 µM; in the experiment with COLO 205 colon, 6.78 µM; in the experiment on NCI-H226 lung, 24.2 µM.

`C#Cc1cccc(Nc2ncnc3ccc(-c4cncc(NS(C)(=O)=O)c4)cc23)c1`: the GI50 in the experiment on NCI-H460 lung is 3.46 µM; in the experiment with PC-3 prostate, 2.21 µM; with NCI/ADR-RES ovarian it was 21.7 µM; in the experiment on A549 NSCLC, 3.63 µM; in the experiment on OVCAR-3 ovarian, 1.15 µM; in the experiment with UACC-257 melanoma, 3.7 µM. Also, the GI50 was 1.87 µM in the experiment on HL-60(TB) leukemia, 2.2 µM with MDA-MB-231 breast, 1.68 µM in the experiment with COLO 205 colon and 2.99 µM in the experiment with NCI-H226 lung. In addition, the TGI in the experiment with NCI-H460 lung is 13.6 µM; in the experiment on PC-3 prostate it was 9.95 µM; with NCI/ADR-RES ovarian, above 100 µM; in the experiment on A549 NSCLC, 14.9 µM; in the experiment with OVCAR-3 ovarian, 3.25 µM; with UACC-257 melanoma, 16.2 µM. Also, the TGI came to 6.83 µM in the experiment on HL-60(TB) leukemia, 8.06 µM in the experiment with MDA-MB-231 breast, 3.94 µM in the experiment with COLO 205 colon and 16.8 µM with NCI-H226 lung.

For the compound `Cn1c(COC(=O)NCCN2CCOCC2)nc2c(N3CCOCC3)nc(-c3ccccc3)nc21`, the GI50 in the experiment with NCI-H460 lung was 1.25 µM; in the experiment on PC-3 prostate it was 1.33 µM; with NCI/ADR-RES ovarian, 1.93 µM; with A549 NSCLC, 1.39 µM; in the experiment with OVCAR-3 ovarian it was 0.343 µM; with UACC-257 melanoma it was 1.44 µM. Besides, the GI50 is 0.521 µM in the experiment on HL-60(TB) leukemia, 1.3 µM in the experiment with MDA-MB-231 breast, 1.49 µM in the experiment on COLO 205 colon and 4.38 µM with NCI-H226 lung. Also, the TGI in the experiment with NCI-H460 lung was 2.77 µM; with PC-3 prostate, 3 µM; in the experiment with NCI/ADR-RES ovarian it was 6.78 µM; with A549 NSCLC, 3.73 µM; in the experiment on OVCAR-3 ovarian, 1.53 µM; in the experiment with UACC-257 melanoma it was 3.16 µM. Also, the TGI is 4.03 µM in the experiment on HL-60(TB) leukemia, 2.88 µM with MDA-MB-231 breast, 3.36 µM in the experiment on COLO 205 colon and 20.3 µM with NCI-H226 lung.

Take `COC(=O)Nc1nc2ccc(Sc3ccc(NC(=O)Nc4cc(C(F)(F)F)ccc4F)cc3)cc2[nH]1`: the GI50 in the experiment on NCI-H460 lung was 2.73 µM; with PC-3 prostate, 3.38 µM; in the experiment with NCI/ADR-RES ovarian it was 2.74 µM; with A549 NSCLC it was 3.01 µM; in the experiment on OVCAR-3 ovarian it was 3.05 µM; with UACC-257 melanoma, 4.63 µM. In addition, the GI50 in the experiment with HL-60(TB) leukemia is 1.46 µM; in the experiment on MDA-MB-231 breast it was 2.84 µM; in the experiment with COLO 205 colon, 3.67 µM; with NCI-H226 lung it was 3.81 µM. Moreover, the TGI was 6.79 µM with NCI-H460 lung; 11.1 µM in the experiment on PC-3 prostate; 11.5 µM in the experiment on NCI/ADR-RES ovarian; 7.06 µM in the experiment with A549 NSCLC; 6.26 µM in the experiment on OVCAR-3 ovarian; 25 µM with UACC-257 melanoma. Besides, the TGI in the experiment with HL-60(TB) leukemia turned out to be 12.3 µM; with MDA-MB-231 breast it was 9.32 µM; with COLO 205 colon it was 9.29 µM; in the experiment on NCI-H226 lung, 20.2 µM.

As for `CCCCCCCCCCCCNC(=O)[C@H]1CSC(c2ccc(OC)c(F)c2)N1` (stereo not given in full), the GI50 in the experiment with NCI-H460 lung was 1.74 µM; in the experiment with PC-3 prostate it was 0.38 µM; with NCI/ADR-RES ovarian it was 1.61 µM; in the experiment on A549 NSCLC, 1.89 µM; in the experiment on OVCAR-3 ovarian it was 1.45 µM; in the experiment with UACC-257 melanoma, 1.62 µM. The GI50 with HL-60(TB) leukemia is 1.63 µM; in the experiment on MDA-MB-231 breast it was 0.225 µM; in the experiment on COLO 205 colon, 1.94 µM; with NCI-H226 lung, 1.42 µM. Moreover, the TGI in the experiment on NCI-H460 lung is 3.63 µM; in the experiment with PC-3 prostate, 1.43 µM; in the experiment with NCI/ADR-RES ovarian it was 3.52 µM; with A549 NSCLC it was 3.69 µM; in the experiment with OVCAR-3 ovarian, 3.26 µM; in the experiment with UACC-257 melanoma, 3.13 µM. Moreover, the TGI with HL-60(TB) leukemia is 3.59 µM; in the experiment on MDA-MB-231 breast it was 0.55 µM; in the experiment with COLO 205 colon, 3.84 µM; with NCI-H226 lung it was 3.21 µM.

`CN1CCN(C(=S)SCN2C(=O)c3ccccc3S2(=O)=O)CC1`: the GI50 was 17.8 µM with NCI-H460 lung; 10.8 µM in the experiment on PC-3 prostate; 34 µM with NCI/ADR-RES ovarian; 28.3 µM in the experiment on A549 NSCLC; 21.9 µM in the experiment on OVCAR-3 ovarian; 63.9 µM in the experiment with UACC-257 melanoma. Further, the GI50 in the experiment on HL-60(TB) leukemia was 0.492 µM; in the experiment with MDA-MB-231 breast, 35.3 µM; with COLO 205 colon it was 3.48 µM; with NCI-H226 lung, above 100 µM. In addition, the TGI in the experiment with NCI-H460 lung was 96.1 µM; with PC-3 prostate, 39.2 µM; with NCI/ADR-RES ovarian it was above 100 µM; with A549 NSCLC it was above 100 µM; in the experiment on OVCAR-3 ovarian it was 63.2 µM; in the experiment on UACC-257 melanoma it was above 100 µM. Besides, the TGI with HL-60(TB) leukemia was 20.3 µM; in the experiment with MDA-MB-231 breast it was above 100 µM; in the experiment with COLO 205 colon, 21.3 µM; in the experiment on NCI-H226 lung it was above 100 µM.

Take `C=C(CC1(CC(=C)c2ccc(C(=O)O)cc2)C(=O)N(C)C(=O)N(C)C1=O)c1ccc(C(=O)O)cc1`: the GI50 is above 100 µM in the experiment on NCI-H460 lung; 63.2 µM in the experiment on PC-3 prostate; 63.8 µM in the experiment on NCI/ADR-RES ovarian; above 100 µM with A549 NSCLC; 96.6 µM with OVCAR-3 ovarian; 34.9 µM in the experiment on UACC-257 melanoma. The GI50 with HL-60(TB) leukemia is 34.4 µM; in the experiment with MDA-MB-231 breast, above 100 µM; with COLO 205 colon it was 29.1 µM; in the experiment with NCI-H226 lung, above 100 µM. In addition, the TGI in the experiment with NCI-H460 lung, in the experiment with PC-3 prostate, with NCI/ADR-RES ovarian, in the experiment on A549 NSCLC, with OVCAR-3 ovarian and in the experiment on UACC-257 melanoma was above 100 µM each time. Further, the TGI with HL-60(TB) leukemia, in the experiment on MDA-MB-231 breast, in the experiment with COLO 205 colon and with NCI-H226 lung was above 100 µM throughout.
